Reference: US7115611B2, “Phenyl derivatives, their manufacture and use as pharmaceutical agents” (Hoffmann-la Roche Inc., priority 2003, dated 2006)

SMILES	melting point
Cc1cc(OCc2ccc(-c3ccc(C(F)(F)F)c(F)c3)nc2C)ccc1OC(C)(C)C(=O)O [Example 38, 2-{4-[6-(3-Fluoro-4-trifluoromethyl-phenyl)-2-methyl-pyridin-3-ylmethoxy]-2-methyl-phenoxy}-2-methyl-propionic acid]	175 to 176 °C
Cc1cc(OCc2ccc(-c3ccc(OC(F)(F)F)cc3)nc2C)ccc1OC(C)(C)C(=O)O [Example 39, 2-Methyl-2-{2-methyl-4-[2-methyl-6-(4-trifluoromethoxy-phenyl)-pyridin-3-ylmethoxy]-phenoxy}-propionic acid]	149 to 151 °C
Cc1cc(OCc2ccc(-c3ccc(C(F)(F)F)cc3)nc2C2CC2)ccc1OC(C)(C)C(=O)O [Example 40, 2-{4-[2-Cyclopropyl-6-(4-trifluoromethyl-phenyl)-pyridin-3-ylmethoxy]-2-methyl-phenoxy}-2-methyl-propionic acid]	170 to 171 °C
Cc1cc(OCc2ccc(-c3ccc(C(F)(F)F)cc3)nn2)ccc1OC(C)(C)C(=O)O [Example 44, 2-Methyl-2-{2-methyl-4-[6-(4-trifluoromethyl-phenyl)-pyridazin-3-ylmethoxy]-phenoxy]-propionic acid]	191 to 192 °C
COCc1nc(-c2ccc(C(F)(F)F)cc2)ccc1COc1ccc(OC(C)(C)C(=O)O)c(C)c1 [Example 45, 2-{4-[2-Methoxymethyl-6-(4-trifluoromethyl-phenyl)-pyridin-3-ylmethoxy]-2-methyl-phenoxy}-2-methyl-propionic acid]	121 to 122 °C
CCOCCc1nc(-c2ccc(C(F)(F)F)nc2)ncc1COc1ccc(OC(C)(C)C(=O)O)c(C)c1 [Example 101, 2-{4-[4-(2-Ethoxy-ethyl)-2-(6-trifluoromethyl-pyridin-3-yl)-pyrimidin-5-ylmethoxy]-2-methyl-phenoxy}-2-methyl-propionic acid]	122 to 124 °C (dec.)
COCCc1nc(-c2ccc(C(F)(F)F)nc2)ncc1COc1ccc(OC(C)(C)C(=O)O)c(C)c1 [Example 102, 2-{4-[4-(2-Methoxy-ethyl)-2-(6-trifluoromethyl-pyridin-3-yl)-pyrimidin-5-ylmethoxy]-2-methyl-phenoxy}-2-methyl-propionic acid]	140.5 to 141.5 °C (dec.)
Cc1cc(OCc2cnc(-c3ccc(C(F)(F)F)nc3)nc2CCO)ccc1OC(C)(C)C(=O)O [Example 103, 2-{4-[4-(2-Hydroxy-ethyl)-2-(6-trifluoromethyl-pyridin-3-yl)-pyrimidin-5-ylmethoxy]-2-methyl-phenoxy}-2-methyl-propionic acid]	187 to 188 °C (dec.)
COCc1nc(-c2ccc(C(F)(F)F)cc2)ncc1COc1ccc(OC(C)(C)C(=O)O)c(C)c1 [Example 104, 2-{4-[4-Methoxymethyl-2-(4-trifluoromethyl-phenyl)-pyrimidin-5-ylmethoxy]-2-methyl-phenoxy}-2-methyl-propionic acid]	120 to 121 °C
Cc1cc(OCc2cnc(-c3ccc(C(F)(F)F)nc3)nc2C2CC2)ccc1OC(C)(C)C(=O)O [Example 105, 2-{4-[4-Cyclopropyl-2-(6-trifluoromethyl-pyridin-3-yl)-pyrimidin-5-ylmethoxy]-2-methyl-phenoxy}-2-methyl-propionic acid]	185 to 185.5 °C
Cc1c(OCc2cnc(-c3ccc(C(F)(F)F)cc3)nc2C2CC2)ccc(OC(C)(C)C(=O)O)c1C [Example 106, 2-{4-[4-Cyclopropyl-2-(4-trifluoromethyl-phenyl)-pyrimidin-5-ylmethoxy]-2,3-dimethyl-phenoxy}-2-methyl-propionic acid]	214 to 215 °C (dec.)
Cc1cc(OCc2cnc(-c3ccc(C(F)(F)F)cc3)nc2C(F)(F)F)ccc1OC(C)(C)C(=O)O [Example 107, 2-Methyl-2-{2-methyl-4-[4-trifluoromethyl-2-(4-trifluoromethyl-phenyl)-pyrimidin-5-ylmethoxy]-phenoxy}-propionic acid]	149 to 151 °C (dec.)
Cc1cc(OCc2cnc(-c3ccc(C(F)(F)F)cc3)cc2C(F)(F)F)ccc1OC(C)(C)C(=O)O [Example 108, 2-Methyl-2-{2-methyl-4-[4-trifluoromethyl-6-(4-trifluoromethyl-phenyl)-pyridin-3-ylmethoxy]-phenoxy}-propionic acid]	148 to 149 °C
Cc1cc(OCc2cnc(-c3ccc(OC(F)(F)F)cc3)cc2Cl)ccc1OC(C)(C)C(=O)O [Example 109, 2-{4-[4-Chloro-6-(4-trifluoromethoxy-phenyl)-pyridin-3-ylmethoxy]-2-methyl-phenoxy}-2-methyl-propionic acid]	179 to 181 °C (dec.)
Cc1cc(OCc2cnc(-c3ccc(C(F)(F)F)cc3)nc2CCO)ccc1OC(C)(C)C(=O)O [Example 110, 2-{4-[4-(2-Hydroxy-ethyl)-2-(4-trifluoromethyl-phenyl)-pyrimidin-5-ylmethoxy]-2-methyl-phenoxy}-2-methyl-propionic acid]	155 to 155.5 °C
Cc1cc(OCc2cnc(-c3ccc(OC(F)(F)F)cc3)nc2C(F)(F)F)ccc1OC(C)(C)C(=O)O [Example 111, 2-Methyl-2-{2-methyl-4-[2-(4-trifluoromethoxy-phenyl)-4-trifluoromethyl-pyrimidin-5-ylmethoxy]-phenoxy}-propionic acid]	153.5 to 154.5 °C
COCCc1nc(-c2ccc(C(F)(F)F)cc2)ncc1COc1ccc(OC(C)(C)C(=O)O)c(C)c1 [Example 140, 2-{4-[4-(2-Methoxy-ethyl)-2-(4-trifluoromethyl-phenyl)-pyrimidin-5-ylmethoxy]-2-methyl-phenoxy}-2-methyl-propionic acid]	119.5 to 120 °C
CC(C)(Oc1ccc(OCc2cnc(-c3ccc(C(F)(F)F)cc3)nc2C2CC2)c(F)c1)C(=O)O [Example 141, 2-{4-[4-Cyclopropyl-2-(4-trifluoromethyl-phenyl)-pyrimidin-5-ylmethoxy]-3-fluoro-phenoxy}-2-methyl-propionic acid]	177.5 to 178 °C
Cc1cc(SCc2cnc(-c3ccc(OC(F)(F)F)cc3)nc2C2CC2)ccc1OC(C)(C)C(=O)O [Example 142, 2-{4-[4-Cyclopropyl-2-(4-trifluoromethoxy-phenyl)-pyrimidin-5-ylmethylsulfanyl]-2-methyl-phenoxy}-2-methyl-propionic acid]	127 to 128 °C (dec.)
Cc1cc(SCc2cnc(-c3ccc(C(F)(F)F)cc3)nc2C2CC2)ccc1OC(C)(C)C(=O)O [Example 144, 2-{4-[4-Cyclopropyl-2-(4-trifluoromethyl-phenyl)-pyrimidin-5-ylmethylsulfanyl]-2-methyl-phenoxy}-2-methyl-propionic acid]	129 to 131 °C
Cc1cc(OCc2ccc(-c3ccc(OC(F)(F)F)cc3)nc2C2CC2)ccc1OC(C)(C)C(=O)O [Example 145, 2-{4-[2-Cyclopropyl-6-(4-trifluoromethoxy-phenyl)-pyridin-3-ylmethoxy]-2-methyl-phenoxy}-2-methyl-propionic acid]	131 to 133 °C
Cc1cc(OCc2ccc(-c3ccc(C(F)(F)F)cc3)nc2C)ccc1SCC(=O)O [Example 146, {2-Methyl-4-[2-methyl-6-(4-trifluoromethyl-phenyl)-pyridin-3-ylmethoxy]-phenylsulfanyl}-acetic acid]	168 to 169 °C
